Test results reported in patent US20220031815A1, “ANIMAL FEED COMPOSITION AND USE THEREOF” (DSM IP ASSETS B.V., priority 2018, published 2022).

System: male broiler chickens (Cobb-500)
Assay: In vivo broiler trial 1: growth performance under litter/density challenge
Protocol: The trial was performed at Poultrz section, INTA-EEA Pergamino, Buenos Aires, Argentina from Aug. 15, 2017 to Oct. 3, 2017. Day-old male broiler chickens (“Cobb-500”), were supplied by a commercial hatchery (Granja Tres Arroyos, Tres Arroyos 378, Buenos Aires, Argentina).
Birds were housed in a conventional barn (netting open sides with curtains) into floor pens with shaving wood as litter. Gas heaters, fans and foggers were used to control the barn temperature.
All birds were weighed, separated in categories of 1 g and distributed to form homogenous lots. Birds of extreme weights were excluded.
Feed and waer were providing ad-libitum.
The experimental diets (Starter, Growing, Finisher and last week) were based on corn, soybean meal as main ingredients (Table 3). Phytase (RONOZYME® HiPhos GT, dose 1000 FYT/kg of feed, 100 g/tn of feed) was used in all the treatments. Rovimix broilders from DSM was used as vitamin-mineral premix, and maduramycin as coccidiostat. The composition of the feed was listed as Table 4
Individual body weight and pen feed intake were determined weekly.
Based on this information feed conversion and weight gain were calculated considering each phase and the complete cycle.
The live weight/feed conversion ratio was used. This is a simplification to avoid the impact of mortality when a low number of birds per pen is used (18 in this experiment).
Uniformity (% of birds included in a range of weights of […] of the pen mean body weight) was determined in each pen at 48 days of age.

In the case of Enramycin, the “effect on feed conversion” value (Enramycin significant from day 35, muramidase at day 7 and from day 21) is reported as “the feed conversion was improved”, the “reduction of days to reach the slaughtering weight (2800 g)” value (effect of inclusion in feed (Enramycin 10 ppm; Muramidase 392 ppm)) is reported as 1.1 days and the “effect on body weight” value (significant from day 21) is reported as “an increment in body weight was observed”.
